Measured values taken from PubChem BioAssay (NCI).
“And” between values parts separate entries of the source, which are not always exact repeats. Equal values may be shown once.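 Growth conditions: 96-well plates. Treatment: test compound, 48 hours, 5 concentrations. Analysis: linear interpolation between bracketing concentrations; unreached endpoints set to highest concentration. Here, GI50 denotes the concentration required for 50% inhibition of growth. TGI is the concentration that stops growth completely.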

Assays:
Experiment in all cases: DTP human tumour cell line panel, 48 h
A549 NSCLC = system: A549 NSCLC
ACHN renal = system: ACHN renal
HCT-15 colon = system: HCT-15 colon
M14 melanoma = system: M14 melanoma
MOLT-4 leukemia = system: MOLT-4 leukemia
NCI-H522 lung = system: NCI-H522 lung
OVCAR-8 ovarian = system: OVCAR-8 ovarian
RPMI-8226 leukemia = system: RPMI-8226 leukemia
UACC-257 melanoma = system: UACC-257 melanoma
UO-31 renal = system: UO-31 renal

SMILES | TGI (A549 NSCLC) | TGI (ACHN renal) | TGI (HCT-15 colon) | TGI (M14 melanoma) | TGI (MOLT-4 leukemia) | TGI (NCI-H522 lung) | TGI (OVCAR-8 ovarian) | TGI (RPMI-8226 leukemia) | TGI (UACC-257 melanoma) | TGI (UO-31 renal) | GI50 (A549 NSCLC) | GI50 (ACHN renal) | GI50 (HCT-15 colon) | GI50 (M14 melanoma) | GI50 (MOLT-4 leukemia) | GI50 (NCI-H522 lung) | GI50 (OVCAR-8 ovarian) | GI50 (RPMI-8226 leukemia) | GI50 (UACC-257 melanoma) | GI50 (UO-31 renal)
CCCCCCC(=O)C/C(CCC(=O)N(Cc1ccccc1)Cc1ccccc1)=N\NC(N)=O | > 100 µM | > 100 µM | > 100 µM | > 100 µM | > 100 µM | > 100 µM | > 100 µM | > 100 µM | > 100 µM | > 100 µM | – | – | – | – | – | – | – | – | – | –
COc1ccc(C2NN=C3c4ccccc4CCC32)cc1 (stereo unspecified) | 76.6 µM | > 100 µM | > 100 µM | > 100 µM | > 100 µM | 17.7 µM | > 100 µM | 85.4 µM | 79.4 µM | > 100 µM | 19.7 µM | 24.5 µM | 3.7 µM | 6.23 µM | 4.04 µM | 3.21 µM | 22.1 µM | 5.36 µM | 19.4 µM | 24.1 µM
C=C(C(=O)OC)[C@@H]1CC2OC1C(=O)C(C)CCC/C(C)=C/CC[C@@]2(C)O (stereo partly specified) | 46 µM | 42.6 µM | > 100 µM | 29.2 µM | 54.5 µM | 48.4 µM | 93.6 µM | 61.2 µM | 76.3 µM | 31.2 µM | 20.1 µM | 18.6 µM | 29.1 µM | 15.8 µM | 17.2 µM | 19.1 µM | 28.1 µM | 16.8 µM | 23.3 µM | 16.4 µM
COc1ccc(Br)c(CN2CCc3ccccc32)c1OS(=O)(=O)c1ccc(C)cc1 | > 100 µM | > 100 µM | > 100 µM | > 100 µM | > 100 µM | 30.8 µM | > 100 µM | > 100 µM | > 100 µM | > 100 µM | – | – | – | – | – | – | – | – | – | –
COc1ccc2nc(C)cc(Sc3nc4ccccc4s3)c2c1 | 14.2 µM | 5.77 µM | 3.73 µM | 9.34 µM | 7.92 µM | 3.15 µM | 10.9 µM | 2.16 µM | 25.5 µM | 5.43 µM | 2.21 µM | 1.21 µM | 0.953 µM | 1.92 µM | 1.25 µM | 1.31 µM | 2.66 µM | 0.362 µM | 4.25 µM | 0.385 µM
CN1CCN(C(=O)c2ccc(NC(=O)Nc3ccc(-c4nc(N5CCOCC5)c5cccn5n4)cc3)cc2)CC1 | 12.1 µM | 12.8 µM | 12.6 µM | 10.3 µM | 2.11 µM | 16.9 µM | > 100 µM | 2.02 µM | 0.576 µM | 5.82 µM | 0.0606 µM | 0.279 µM | 0.548 µM | 0.0966 µM | 0.0443 µM | 0.0357 µM | 0.0486 µM | 0.287 µM | 0.102 µM | 0.304 µM
COc1ccc(N2C(=O)[C@@H](N=[N+]=[N-])[C@@H]2[C@H]2COC(C)(C)O2)cc1 | > 100 µM | > 100 µM | > 100 µM | > 100 µM | > 100 µM | > 100 µM | > 100 µM | > 100 µM | > 100 µM | > 100 µM | – | – | – | – | – | – | – | – | – | –
COc1cc(C)cc(C(=O)/C=C/c2ccccc2)c1O | > 100 µM | 33.1 µM | 40.9 µM | 34.8 µM | 69.8 µM | 50.8 µM | 40 µM | 63.3 µM | 37.7 µM | 32.4 µM | – | – | – | – | – | – | – | – | – | –
N#C/C(=C/N1CCN(C(=O)c2ccco2)C1=S)C(=O)Nc1ccc(Cl)cc1 | > 50 µM | 42.2 µM | > 50 µM | > 50 µM | > 50 µM | 30.2 µM | > 50 µM | 32.2 µM | 48.4 µM | 26.6 µM | 25.8 µM | 15.3 µM | 21.3 µM | 14.2 µM | 17.8 µM | 16.7 µM | 20.6 µM | 10.5 µM | 16.5 µM | 12 µM
CC(C)C[C@H](NC(=O)Cn1cccc(CNC(=O)c2ccccc2)c1=O)B(O)O | > 100 µM | > 100 µM | 37.3 µM | 1.42 µM | > 100 µM | 2.3 µM | > 85.7 µM | – | 3.53 µM | 23 µM | 4.54 µM | 0.626 µM | 4.7 µM | 0.27 µM | 0.289 µM | 0.377 µM | 4.23 µM | 0.352 µM | 0.505 µM | 4 µM
COc1ccc(-c2cc3ccccc3[nH]c2=O)cc1OC | > 100 µM | > 100 µM | > 100 µM | > 100 µM | > 100 µM | > 100 µM | > 100 µM | > 100 µM | > 100 µM | > 100 µM | – | – | – | – | – | – | – | – | – | –
CC1=NN(c2ccccc2)C(=O)C12[C@H](c1ccccc1)C2(C#N)C#N (stereo partly specified) | 31.9 µM | 21.5 µM | 13.9 µM | 3.14 µM | 3.1 µM | 11.5 µM | 7.27 µM | 4.08 µM | 18.4 µM | 27.9 µM | – | – | – | – | – | – | – | – | – | –
CC1=C(CO)C(=O)O[C@@H]([C@@H](C)[C@H]2CC[C@H]3[C@@H]4C[C@H]5O[C@]56[C@@H](O)C=CC(=O)[C@]6(C)[C@H]4CC[C@]23C)C1 | 3.96 µM | 2.02 µM | 1.94 µM | 1.06 µM | 1.72 µM | 0.114 µM | 1.76 µM | 37.5 µM | 2.32 µM | 1.31 µM | – | – | – | – | – | – | – | – | – | –
Cc1cc(=O)[nH]c(N/N=C/c2ccccc2O)n1 | > 100 µM | > 100 µM | > 100 µM | 26.3 µM | > 100 µM | > 100 µM | > 100 µM | > 100 µM | 34.7 µM | > 100 µM | 4.4 µM | 7.39 µM | 4.63 µM | 3.56 µM | 4.95 µM | 7.67 µM | 3.1 µM | 5.61 µM | 3.67 µM | 5.3 µM
O=C1NC(=O)C(c2cccc(Cl)c2)=C1Nc1ccc(Cl)c(C(=O)O)c1 | > 25 µM | > 25 µM | > 25 µM | > 25 µM | > 25 µM | > 25 µM | > 25 µM | > 25 µM | > 25 µM | > 25 µM | > 25 µM | > 25 µM | > 25 µM | > 25 µM | > 25 µM | > 25 µM | > 25 µM | > 25 µM | > 25 µM | > 25 µM
CCCCC#Cc1c(I)n(C2OC(CO[Si](C)(C)C(C)(C)C)C3OC(C)(C)OC32)c(=O)n(C(=O)c2ccccc2)c1=O (stereo unspecified) | > 100 µM | > 100 µM | > 100 µM | 3.3 µM | 23.6 µM | 3.93 µM | 18.6 µM | 17.4 µM | 30.7 µM | 7.51 µM | > 100 µM | 3 µM | 1.63 µM | 1.6 µM | 5.79 µM | 1.84 µM | 5.61 µM | 3.64 µM | 16.4 µM | 1.97 µM
Cc1ccc(SSCC(O)C(O)CSSc2ccc(C)cc2)cc1 (stereo unspecified) | 35.9 µM and 26.4 µM | 23.6 µM and 29.3 µM | 28.2 µM and 27.7 µM | 18.9 µM and 21.6 µM | 5.96 µM and 20.9 µM | 3.38 µM and 3.68 µM | 14.6 µM and 31.2 µM | 12.8 µM and 22 µM | 30.5 µM and 28.1 µM | 17.6 µM and 15.3 µM | – | – | – | – | 1.43 µM and 3.12 µM | – | 4.21 µM and 17.4 µM | – | – | –
COc1cc2c(cc1OC)C(C(CBr)CBr)N(C1CCCC1)CC2 (stereo unspecified) | > 100 µM | > 100 µM | > 100 µM | > 100 µM | > 100 µM | > 100 µM | > 100 µM | > 100 µM | > 100 µM | > 100 µM | – | – | – | – | – | – | – | – | – | –
COC(=O)/C(C#N)=C1\CCC(OC)N1C (stereo unspecified) | > 100 µM | > 100 µM | > 100 µM | > 100 µM | > 100 µM | > 100 µM | > 100 µM | > 100 µM | > 100 µM | > 100 µM | – | – | – | – | – | – | – | – | – | –
OCCCCC#Cc1ccccc1C#Cc1cccnc1 | 80.2 µM | > 100 µM | 74.1 µM | 75.4 µM | > 100 µM | > 100 µM | > 100 µM | > 100 µM | 54.1 µM | 90.4 µM | 25.5 µM | 28.3 µM | 21.9 µM | 23.4 µM | 27.9 µM | 41.9 µM | 30.7 µM | 35.5 µM | 25 µM | 25.2 µM
CCC1CCCCN1CC(C(C)=O)C(c1ccccc1)c1c(O)c2ccccc2oc1=O (stereo unspecified) | > 100 µM | > 100 µM | > 100 µM | > 100 µM | > 100 µM | > 100 µM | > 100 µM | > 100 µM | > 100 µM | > 100 µM | – | – | – | – | – | – | – | – | – | –
CCN1CCN(c2cc(C(=O)Nc3cccc(Nc4ccc5c(OC)cccc5n4)c3)cc(C(F)(F)F)c2)CC1 | 5.28 µM | 4.97 µM | 2.26 µM | 1.65 µM | 12.3 µM | 4 µM | 7.64 µM | 5.32 µM | 3.6 µM | 3.88 µM | 1.05 µM | 1.21 µM | 0.797 µM | 0.668 µM | 0.616 µM | 1.01 µM | 1.97 µM | 1.2 µM | 1.02 µM | 0.746 µM
